{"source": "patent US20050118188A1", "about": "“Pharmaceutical composition for immunization against AIDS” (Aventis Pasteur, S.A., priority 2000, published 2005)", "system": "female BALB/c By J Ico mice", "settings": "mouse, in vivo"}
{"smiles": "CC(C)CCC[C@@H](C)[C@H]1CC[C@H]2[C@@H]3CC=C4C[C@@H](OC(=O)NCCN(C)C)CC[C@]4(C)[C@H]3CC[C@]12C.Cl", "note": "[DCchol, DC-Chol hydrochloride]", "values": [{"measurement": "Adjuvant effect on local IgA responses (in words)", "result": "marked adjuvant effect"}, {"measurement": "Adjuvant effect on serum anti-gp160 antibodies (in words)", "result": "good adjuvant"}, {"measurement": "Factor by which IgA normalized specific activities (NSA) were multiplied compared to gp160 alone", "result": 12}]}
